Like-named read-outs stand apart in the source and are kept apart here.

In assay [1] the test system is Mycobacterium sp. with the deposit number CGMCC No.21272. Nature of the assay: BIOLOG GEN III growth experiments. It counts as cell-based. Particulars: growth on the substance; strain CGMCC No.21272 (YT).
Assay [2] relates to Mycobacterium sp. with deposit number of CGMCC No.21273. Put plainly: BIOLOG GEN III growth experiments. Particulars: growth on the substance; strain CGMCC No.21273 (JD). It counts as cell-based.
Assay [3] shares this test system. Nature of the assay: BIOLOG chemically sensitive experiments. It counts as cell-based. Conditions: strain CGMCC No.21273 (JD).
Assay [4] relates to Mycobacterium sp. with the deposit number CGMCC No.21272. Put plainly: BIOLOG chemically sensitive experiments. It is filed as cell-based. Particulars: strain CGMCC No.21272 (YT).
Assay [5] concerns strain YT. Put plainly: inhibition of nitrification inhibitors on nitrification activity and growth. It counts as cell-based, Mycobacterium sp. Conditions: inhibitor 5 mM; for inhibition at 5000 µM: Mycobacterium, read-out: Nitric oxide synthase (nitrification) activity inhibition rate (%); for inhibition at 5000 µM / NH4^+-N / NO2^--N / OD600: strain YT. On the procedure:
The nitrogen contents of the two nitrogen sources were equal in a modified Stephenson medium with (NH4)2SO4 as a nitrogen source (NH4)2SO4 content was 2.0g/L) and a modified Stephenson medium with L-arginine hydrochloride (C6H14N4O2•HCl) as a nitrogen source (C6H14N4O2•HCl content was 1.6 g/L).
When sodium pyruvate was added as a carbon source in the design of a culture medium, 1.0M sodium pyruvate solution (the concentration was calculated in terms of pyruvic acid) was prepared firstly, the pH was adjusted to the range of 7.0-7.2, and the solution was sterilized separately for later use. Before use, 1ml of 1.0M sodium pyruvate solution was added to about 100ml of modified Stevenson culture medium with (NH4)2SO4 as a nitrogen source or L-arginine hydrochloride (C6H14N4O2•HCl) as a nitrogen source, and the pyruvic acid concentration of the culture system was designed to be 0.01M.
Four kinds of nitrification inhibitors 4-amino-1,2,4-triazole (ATC), dicyandiamide (DCD, C2H4N4), aminoguanidine hydrochloride (CH6N4•HCl), and guanylthiourea (C2H6N4S) were selected. The four nitrification inhibitors were prepared with a concentration of 500mM, respectively, after the solutions were filtered and sterilized, 1ml of the four nitrification inhibitors with a concentration of 500mM was added into the two medium with different nitrogen sources, such that the corresponding concentration of each of the nitrification inhibitors in the systems was 5 mM.
Two mediums with different nitrogen sources were respectively subjected to 5 treatments, namely without addition of an inhibitor, adding ATC, adding DCD, adding aminoguanidine hydrochloride, and adding guanylthiourea as shown in the table below; the YT system without addition of an inhibitor and the system without inoculation of strain YT and only addition of an inhibitor were respectively used as a control group; 1ml of PBS-YT bacterial liquid was inoculated, and 1ml of sterile water was used as a substitute when the inoculation of a bacterial strain was not performed. The total volume of each culture system was equal, it was about 100 ml.
1.5 Culture conditions: the culture was performed in a shaking table with a rotational speed of 180rpm at 28°C.
1.6 Measurement and calculation of indicator: the growth OD600 and pH value of thallus in the culture solution were measured every week, the contents of NH4^+-N, NO2^--N and NOx^--N were measured, the inhibition effect of the nitric oxide synthase (nitrification) activity of different culture systems were calculated and compared.
Nitric oxide synthase (nitrification) inhibition rate (%) = (NO2^--NYT concentration - NO2^--Nculture system added with an inhibitor concentration) ×100/ NO2^--NYT concentration

The mark [6] stands for this setting: L-arginine hydrochloride as nitrogen source, 7 days (Table 13c).
Where [7] appears, read: L-arginine hydrochloride as nitrogen source, 14 days (Table 13c).
Setting [8] is: L-arginine hydrochloride as nitrogen source, 20 days.
Setting [9] is: L-arginine hydrochloride as nitrogen source, 31 days.
The mark [10] stands for this setting: ammonium sulfate as nitrogen source, 7 days (Table 13c).
[11] abbreviates: ammonium sulfate as nitrogen source, 14 days (Table 13c).
[12] abbreviates: ammonium sulfate as nitrogen source, 20 days.
[13] abbreviates: ammonium sulfate as nitrogen source, 31 days.

Turning to `CC(O)CC(=O)O` (racemic) [β-hydroxy-D,L-butyric acid], the “BIOLOG GEN III (growth experiments) Results” value (“BIOLOG GEN III” below) in assay [1] and in assay [2] was “+” each time.
On to `CC(O)C(=O)[O-].[Na+]` (stereo not shown) [1 % Sodium lactate, Sodium lactate], for which the “BIOLOG GEN II (chemically sensitive experiments) Results” value in assay [3] and in assay [4] was “+” each time.
As to `[Cl-].[Na+]` [1%NaCl, NaCl], the “BIOLOG GEN II (chemically sensitive experiments) Results” value in assay [3] and in assay [4] was “+” in each case.
As to `CCC(O)C(=O)O` (stereo not shown) [A-hydroxybutyr atic acid], the “BIOLOG GEN III” value in assay [1] and in assay [2] was “-” in each case.
`OC[C@@H](O)C(O)[C@H](O)CO` [D-arabitol]: the “BIOLOG GEN III” value in assay [1] and in assay [2] was “-” in each case.
Regarding `O=C(CO)[C@@H](O)[C@H](O)[C@H](O)COP(=O)(O)O` [D-fructose-6-phosphoric acid], the “BIOLOG GEN III” value in assay [1] and in assay [2] was “+” each time.
Regarding `O=C[C@H](O)[C@@H](O)[C@H](O)[C@H](O)COP(=O)(O)O` [D-glucose-6-phosphoric acid], the “BIOLOG GEN III” value in assay [1] and in assay [2] was “-” throughout.
As for `O=C(O)C[C@@H](O)C(=O)O` [D-malic acid], the “BIOLOG GEN III” value in assay [1] and in assay [2] was “-” throughout.
Take `OC[C@H]1O[C@H](O[C@H]2[C@H](O)[C@@H](O)[C@H](O)O[C@@H]2CO)[C@H](O)[C@@H](O)[C@@H]1O` [D-maltose]: the “BIOLOG GEN III” value in assay [1] and in assay [2] was “-” in each case.
Turning to `OC[C@H]1O[C@H](OCC2O[C@@H](O)[C@H](O)[C@@H](O)[C@@H]2O)[C@H](O)[C@@H](O)[C@H]1O` (stereo partly drawn) [D-melibiose], the “BIOLOG GEN III” value in assay [1] and in assay [2] was “+” throughout.
Turning to `COC(=O)[C@@H](C)O` [D-methyl lactate], the “BIOLOG GEN III” value in assay [1] and in assay [2] was “-” throughout.
In the case of `OC[C@H]1O[C@H](OC[C@H]2O[C@H](O[C@]3(CO)O[C@H](CO)[C@@H](O)[C@@H]3O)[C@H](O)[C@@H](O)[C@@H]2O)[C@H](O)[C@@H](O)[C@H]1O` [D-raffinose], the “BIOLOG GEN III” value in assay [1] and in assay [2] was “-” each time.
On to `OC[C@H]1O[C@H](O[C@H]2O[C@H](CO)[C@@H](O)[C@H](O)[C@H]2O)[C@H](O)[C@@H](O)[C@@H]1O` [D-trehalose], for which the “BIOLOG GEN III” value in assay [1] and in assay [2] was “+” each time.
By inhibition is commonly meant the change of the read-out against control, counted positive when it falls. Take `N#CN=C(N)N` [DCD, dicyandiamide]: the inhibition at 5000 µM in assay [5] (168 h, Ammonium sulfate, Culture 7 days (Table 13e)) came out at 0%; in assay [5] (168 h, L-arginine hydrochloride, Culture 7 days (Table 13e)), 0%; in assay [5] (336 h, Ammonium sulfate, Culture 14 days (Table 13e)), 0%; in assay [5] (336 h, L-arginine hydrochloride, Culture 14 days (Table 13e)), 7.14%; in assay [5] (480 h, Ammonium sulfate, Culture 20 days) it was 32.4%; in assay [5] (480 h, L-arginine hydrochloride, Culture 20 days) it was 0.72%. Further, the inhibition at 5000 µM in assay [5] (Ammonium sulfate, Culture 31 days) was 8.62%; in assay [5] (L-arginine hydrochloride, Culture 31 days), 0%. Further, the “effect on growth of strain YT” value in assay [5] (pure culture with two nitrogen sources) is on record as “did not inhibit the growth”. Moreover, the “effect on nitrification activity of strain YT” value in assay [5] (pure culture) is reported as “did not impose an inhibitory effect”. Further, the “NH4^+-N” value in assay [5] (setting [6]) was 18; in assay [5] (setting [7]), 121; in assay [5] (setting [8]) it was 191; in assay [5] (setting [9]), 173; in assay [5] (setting [10]), 421; in assay [5] (setting [11]), 408. Further, the “NH4^+-N” value in assay [5] (setting [12]) was found to be 355; in assay [5] (setting [13]), 382. Also, the “NO2^--N” value in assay [5] (setting [6]) was 0.50; in assay [5] (setting [7]) it was 32.5; in assay [5] (setting [8]), 152.77; in assay [5] (setting [9]) it was 153.87; in assay [5] (setting [10]), 1.00; in assay [5] (setting [11]), 2.50. For the same molecule, the “NO2^--N” value in assay [5] (setting [12]) amounted to 3.20; in assay [5] (setting [13]), 5.11. The OD600 in assay [5] (setting [6]) was found to be 0.397; in assay [5] (setting [7]), 0.438; in assay [5] (setting [8]) it was 0.415; in assay [5] (setting [9]), 0.378; in assay [5] (setting [10]), 0.207; in assay [5] (setting [11]) it was 0.121. The OD600 was 0.127 in assay [5] (setting [12]) and 0.128 in assay [5] (setting [13]).
Regarding `C[C@H](O)C(=O)O` [L-lactic acid], the “BIOLOG GEN III” value in assay [1] and in assay [2] was “-” each time.
Regarding `O=C(O)C[C@H](O)C(=O)O` [L-malic acid], the “BIOLOG GEN III” value in assay [1] and in assay [2] was “+” in each case.
In the case of `[Cl-].[Li+]` [Lithium chloride], the “BIOLOG GEN II (chemically sensitive experiments) Results” value in assay [3] and in assay [4] was “+” in each case.
As for `O=[Te]([O-])[O-].[K+].[K+]` [Potassium tellurite], the “BIOLOG GEN II (chemically sensitive experiments) Results” value in assay [3] and in assay [4] was “+” in each case.
Regarding `CO[C@H]1/C=C/O[C@@]2(C)Oc3c(C)c([O-])c4c(O)c(cc(O)c4c3C2=O)NC(=O)/C(C)=C\C=C\[C@H](C)[C@H](O)[C@@H](C)[C@@H](O)[C@@H](C)[C@H](OC(C)=O)[C@@H]1C.[Na+]` [Rifamycin SV], the “BIOLOG GEN II (chemically sensitive experiments) Results” value in assay [3] and in assay [4] was “+” in each case.
In the case of `OC[C@H]1O[C@H](OC[C@H]2O[C@H](OC[C@H]3O[C@H](O[C@]4(CO)O[C@H](CO)[C@@H](O)[C@@H]4O)[C@H](O)[C@@H](O)[C@@H]3O)[C@H](O)[C@@H](O)[C@H]2O)[C@H](O)[C@@H](O)[C@H]1O` [Stachyose], the “BIOLOG GEN III” value in assay [1] and in assay [2] was “-” in each case.
In the case of `COc1cc(-c2ccc(-n3nc(-c4ccccc4)n[n+]3-c3ccccc3)c(OC)c2)ccc1-n1nc(-c2ccccc2)n[n+]1-c1ccccc1.[Cl-].[Cl-]` [Tetrazolium blue], the “BIOLOG GEN II (chemically sensitive experiments) Results” value in assay [3] and in assay [4] was “-” throughout.
For `O=C(O)CCC(=O)C(=O)O` [α-ketoglutarate], the “BIOLOG GEN III” value in assay [1] and in assay [2] was “+” each time.
`CO[C@@H]1O[C@H](CO)[C@@H](O)[C@H](O)[C@H]1O` [β-methyl-D-glucoside]: the “BIOLOG GEN III” value in assay [1] and in assay [2] was “-” in each case.
Take D-salicin: the “BIOLOG GEN III” value in assay [1] and in assay [2] was “-” each time.
Consider Tween 40, for which the “BIOLOG GEN III” value in assay [1] and in assay [2] was “+” each time.
